IC50 data for 24 molecules are collected here from patent US7960409B2, “Pharmaceutical phenylquinoline and chromen-2-one triazole compounds” (Merck Sharp & Dohme Corp., priority 2007, dated 2011).

The target in the assay is T1, recombinant human 5-lipoxygenase (Homo sapiens, UniProt P09917).
T1 construct: made in house; host or cells: Sf9 cells infected with recombinant baculovirus rvH5LO (8-1)
T1 sequence (P09917 1-674): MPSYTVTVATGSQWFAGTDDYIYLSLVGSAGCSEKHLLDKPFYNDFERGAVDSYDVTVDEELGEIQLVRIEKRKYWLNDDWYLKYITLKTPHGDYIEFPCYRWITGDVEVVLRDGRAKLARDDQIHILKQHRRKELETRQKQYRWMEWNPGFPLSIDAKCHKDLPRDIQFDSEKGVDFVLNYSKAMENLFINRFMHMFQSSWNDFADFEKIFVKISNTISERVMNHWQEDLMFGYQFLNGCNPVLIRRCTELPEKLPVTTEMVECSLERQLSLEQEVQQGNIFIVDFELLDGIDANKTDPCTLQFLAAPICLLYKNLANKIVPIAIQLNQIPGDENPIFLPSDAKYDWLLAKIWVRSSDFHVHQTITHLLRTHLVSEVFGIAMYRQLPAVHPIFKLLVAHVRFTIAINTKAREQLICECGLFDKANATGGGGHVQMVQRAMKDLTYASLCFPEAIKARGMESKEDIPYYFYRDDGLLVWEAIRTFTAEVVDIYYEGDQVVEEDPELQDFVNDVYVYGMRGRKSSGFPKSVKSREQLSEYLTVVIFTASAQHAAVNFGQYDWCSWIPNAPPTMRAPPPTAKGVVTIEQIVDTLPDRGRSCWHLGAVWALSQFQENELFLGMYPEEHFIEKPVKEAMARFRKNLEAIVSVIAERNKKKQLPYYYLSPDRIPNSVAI
Description: Human 5-Lipoxygenase Enzyme Assay. Conditions: spectrophotometric assay, purified recombinant human 5-lipoxygenase, 20 μM arachidonic acid. The assay is classed as biochemical. The method, then:
Compounds of this invention can be tested using the following assays to determine their mammalian leukotriene biosynthesis inhibiting activity.
Human 5-Lipoxygenase Enzyme Assay
The activity of 5-lipoxygenase was measured using a spectrophotometric assay and recombinant human 5-lipoxygenase as a source of enzyme. Human 5-lipoxygenase was purified from Sf9 cells infected with the recombinant baculovirus rvH5LO (8-1) containing the coding sequence for human 5-lipoxygenase as described by Percival et al., (Eur. J. Biochem 210, 109-117, 1992). The enzymatic activity was measured using a spectrophotometric assay from the optimal rate of conjugated diene formation (absorbance at 238 nm) using the procedure described in Riendeau et al. (Biochem. Pharmacol. 38, 2313-2321, 1989) with minor modifications. The incubation mixture contained 25 mM potassium phosphate, pH 7.5, 0.1 mM EDTA, 0.3 mM CaCl2, 24 μg/ml phosphatidylcholine, 0.1 mM ATP, 0.5 mM DTT, 20 μM arachidonic acid (2 μl from a 100-fold solution in ethanol), inhibitor (2 μl aliquot from a 100-fold solution in DMSO) and an aliquot of purified 5-lipoxygenase. Reactions were initiated by the addition of the purified 5-lipoxygenase and the rate of conjugated diene production was followed for 5 minutes at room temperature. The reaction was performed in a Costar UV plate (Cat. # 3635) and the absorbance changes at 238 nm were recorded with a Molecular Devices UV/VIS 96 well spectrophotometer (Spectra Max 190) using SOFTmax PRO software. Enzymatic activity was calculated from the optimal rate of the reaction by a linear fit of the increase in absorbance at 238 nm over 36 seconds. When the rate of diene formation is low (<0.01 Absorbance Unit/min) the linear fit is performed over 180 seconds.

Each structure is given as a SMILES string.

The IC50 is the concentration that inhibits the measured activity by half.

As for `N#Cc1cc(-c2cccc(F)c2)c2ccc(Cn3cc(C(O)(C4CC4)C4CC4)nn3)cc2n1` [Example 47, 7-({4-[dicyclopropyl(hydroxy)methyl]-1H-1,2,3-triazol-1-yl}methyl)-4-(3-fluorophenyl)-quinoline-2-carbonitrile], the IC50 came out at 62 nM.

For `CC[C@](O)(c1cn(Cc2ccc3c(-c4coc(C)n4)cc(=O)oc3c2)nn1)C(F)(F)F` [Example 37, (S)-7-({4-[1-hydroxy-1-(trifluoromethyl)propyl]-1H-1,2,3-triazol-1-yl}methyl)-4-(2-methyl-1,3-oxazol-4-yl)-2H-chromen-2-one], the IC50 worked out at 351 nM.

On to `CC[C@](O)(c1cn(Cc2ccc3c(-c4ccccc4)cc(C(N)=O)nc3c2)nn1)C(F)(F)F` [Example 69, (S)-7-({4-[1-hydroxy-1-(trifluoromethyl)propyl]-1H-1,2,3-triazol-1-yl}methyl)-4-phenylquinoline-2-carboxamide], for which the IC50 came to 35 nM.

In the case of `CC[C@](O)(c1cn(Cc2ccc3c(-c4ccc(F)cc4)cc(N(C)C)nc3c2)nn1)C(F)(F)F` [Example 87, (S)-2-(1-{[2-(dimethylamino)-4-(4-fluorophenyl)quinolin-7-yl]methyl}-1H-1,2,3-triazol-4-yl)-1,1,1-trifluorobutan-2-ol], the IC50 amounted to 17 nM.

`CC[C@](O)(c1cn(Cc2ccc3c(-c4cc(F)cc(F)c4)cc(C#N)nc3c2)nn1)C(F)(F)F` [Example 58, (S)-4-(3,5-difluorophenyl)-7-({4-[1-hydroxy-1-(trifluoromethyl)propyl]-1H-1,2,3-triazol-1-yl}methyl)quinoline-2-carbonitrile]: the half-inhibitory concentration (IC50) came out at 52 nM.

As for `CC[C@](O)(c1cn(Cc2ccc3c(-c4cc(Cl)cc(Cl)c4)cc(C#N)nc3c2)nn1)C(F)(F)F` [Example 57, (S)-4-(3,5-dichlorophenyl)-7-({4-[1-hydroxy-1-(trifluoromethyl)propyl]-1H-1,2,3-triazol-1-yl}methyl)quinoline-2-carbonitrile], the concentration for half-maximal inhibition (IC50) worked out at 86 nM.

Regarding `O=c1cc(-c2ccc(F)cc2)c2ccc(Cn3cc(C(O)(C4CC4)C4CC4)nn3)cc2o1` [Example 26, 7-[4-(Dicyclopropyl-hydroxy-methyl)-[1,2,3]triazol-1-ylmethyl]-4-(4-fluoro-phenyl)-chromen-2-one], the IC50 was 98 nM.

Take `CCC(O)(c1nnn(Cc2ccc3c(-c4cccc(F)c4)cc(=O)oc3c2)c1C)C(F)(F)F` (stereo not drawn) [Example 27, 4-(3-fluorophenyl)-7-{[4-(1-hydroxy-1-(trifluoromethyl)propyl)-5-methyl-1H-1,2,3-triazol-1-yl}methyl]-2H-chromen-2-one]: the half-maximal inhibitory concentration (IC50) amounted to 298 nM.

Take `CC[C@](O)(c1cn(Cc2ccc3c(-c4ccccc4)cc(=O)oc3c2)nn1)C(F)(F)F` [Example 5, (S)-7-[4-(1-Hydroxy-1-trifluoromethyl-propyl)-[1,2,3]triazol-1-ylmethyl]-4-phenyl-chromen-2-one]: the IC50 is 45 nM.

With `CC[C@](O)(c1cn(Cc2ccc3c(-c4cccc(F)c4)cc(=O)oc3c2)nn1)C(F)(F)F` [Example 1, (S)-4-(3-fluorophenyl)-7-({4-[1-hydroxy-1-(trifluoromethyl)propyl]-1H-1,2,3-triazol-1-yl}methyl)-2H-chromen-2-one], the half-inhibitory concentration (IC50) stood at 38 nM.

As for `N#Cc1cc(-c2ccccc2)c2ccc(Cn3cc(C(O)(C4CC4)C4CC4)nn3)cc2n1` [Example 48, 7-({4-[dicyclopropyl(hydroxy)methyl]-1H-1,2,3-triazol-1-yl}methyl)-4-phenylquinoline-2-carbonitrile], the half-maximal inhibitory concentration (IC50) amounted to 82 nM.

With `CC[C@](O)(c1cn(Cc2ccc3c(-c4ccc(F)cc4)cc(C#N)nc3c2)nn1)C(F)(F)F` [Example 41, (S)-4-(4-fluorophenyl)-7-({4-[1-hydroxy-1-(trifluoromethyl)propyl]-1H-1,2,3-triazol-1-yl}methyl)quinoline-2-carbonitrile], the IC50 turned out to be 51 nM.

For `CC[C@](O)(c1cn(Cc2ccc3c(-c4ccc(F)cc4)cc(=O)oc3c2)nn1)C(F)(F)F` [Example 2, (S)-4-(4-Fluorophenyl)-7-[4-(1-hydroxy-1-trifluoromethyl-propyl)-[1,2,3]triazol-1-ylmethyl]-chromen-2-one], the IC50 is 50 nM.

With `CCC(O)(CC)c1cn(Cc2ccc3c(-c4cccc(F)c4)cc(=O)oc3c2)nn1` [Example 12, 7-[4-(1-Ethyl-1-hydroxy-propyl)-[1,2,3]triazol-1-ylmethyl]-4-(3-fluoro-phenyl)-chromen-2-one], the 50% inhibitory concentration (IC50) is 324 nM.

Consider `CC[C@](O)(c1cn(Cc2ccc3c(-c4ccccc4)cc(C#N)nc3c2)nn1)C(F)(F)F` [Example 39, (S)-7-({4-[1-hydroxy-1-(trifluoromethyl)propyl]-1H-1,2,3-triazol-1-yl}methyl)-4-phenylquinoline-2-carbonitrile], for which the IC50 amounted to 34 nM.

Turning to `O=c1cc(-c2cccc(F)c2)c2ccc(Cn3cc(Cc4ccccc4)nn3)cc2o1` [Example 22, 7-[(4-benzyl-1H-1,2,3-triazol-1-yl)methyl]-4-(3-fluorophenyl)-2H-chromen-2-one], the IC50 was 951 nM.

Regarding `CC[C@](O)(c1cn(Cc2ccc3c(-c4ccc(F)cc4)cc(OC)nc3c2)nn1)C(F)(F)F` [Example 88, (S)-1,1-trifluoro-2-(1-{[4-(4-fluorophenyl)-2-methoxyquinolin-7-yl]methyl}-1H-1,2,3-triazol-4-yl)butan-2-ol], the IC50 is 41 nM.

Turning to `N#Cc1cc(-c2ccc(F)cc2)c2ccc(Cn3cc(C(O)(C4CC4)C4CC4)nn3)cc2n1` [Example 46, 7-({4-[dicyclopropyl(hydroxy)methyl]-1H-1,2,3-triazol-1-yl}methyl)-4-(4-fluorophenyl)quinoline-2-carbonitrile], the IC50 is 103 nM.

For `CC[C@](O)(c1cn(Cc2ccc3c(-c4cccc(F)c4)cc(C#N)nc3c2)nn1)C(F)(F)F` [Example 40, (S)-4-(3-fluorophenyl)-7-({4-[1-hydroxy-1-(trifluoromethyl)propyl]-1H-1,2,3-triazol-1-yl}methyl)quinoline-2-carbonitrile], the IC50 is 54 nM.

`CC[C@](O)(c1cn(Cc2ccc3c(-c4ccccc4F)cc(=O)oc3c2)nn1)C(F)(F)F` [Example 3, (S)-4-(2-Fluoro-phenyl)-7-[4-(1-hydroxy-1-trifluoromethyl-propyl)-[1,2,3]triazol-1-ylmethyl]-chromen-2-one]: the half-maximal inhibitory concentration (IC50) was determined as 1210 nM.

For `CCC(O)(CC)c1cn(Cc2ccc3c(-c4ccccc4)cc(C#N)nc3c2)nn1` [Example 43, 7-{[4-(1-ethyl-1-hydroxypropyl)-1H-1,2,3-triazol-1-yl]methyl}-4-phenylquinoline-2-carbonitrile], the concentration for half-maximal inhibition (IC50) worked out at 275 nM.

As for `CCC(O)(CC)c1cn(Cc2ccc3c(-c4ccc(F)cc4)cc(=O)oc3c2)nn1` [Example 16, 7-[4-(1-Ethyl-1-hydroxy-propyl)-[1,2,3]triazol-1-ylmethyl]-4-(4-fluoro-phenyl)-chromen-2-one], the IC50 was determined as 442 nM.

On to `CCCC(O)(c1cn(Cc2ccc3c(-c4cccc(F)c4)cc(=O)oc3c2)nn1)C(F)(F)F` (stereo not drawn) [Example 30, 4-(3-Fluorophenyl)-7-({4-[1-hydroxy-1-(trifluoromethyl)butyl]-1H-1,2,3-triazol-1-yl}methyl)-2H-chromen-2-one], for which the IC50 amounted to 37 nM.

Regarding `CC[C@](O)(c1cn(Cc2ccc3c(-c4ccsc4)cc(=O)oc3c2)nn1)C(F)(F)F` [Example 8, (S)-7-[4-(1-Hydroxy-1-trifluoromethyl-propyl)-[1,2,3]triazol-1-ylmethyl]-4-thiophen-3-yl-chromen-2-one], the IC50 was found to be 50 nM.
